Measurements reported in ChEMBL document CHEMBL1138922, “Nepsilon-thioacetyl-lysine: a multi-facet functional probe for enzymatic protein lysine Nepsilon-deacetylation” (Bioorg Med Chem Lett, 2006).
Blank lines part the entries; values can stand above or below the compound they belong to. Activity calls are given as the source filed them. The rule behind the calls is not given here.

Assays:
[1] = molecular target: T1, NAD-dependent protein deacetylase sirtuin-1 (Homo sapiens, UniProt Q96EB6); test: (§1) Inhibition of human SIRT1
T1 sequence (Q96EB6 whole entry): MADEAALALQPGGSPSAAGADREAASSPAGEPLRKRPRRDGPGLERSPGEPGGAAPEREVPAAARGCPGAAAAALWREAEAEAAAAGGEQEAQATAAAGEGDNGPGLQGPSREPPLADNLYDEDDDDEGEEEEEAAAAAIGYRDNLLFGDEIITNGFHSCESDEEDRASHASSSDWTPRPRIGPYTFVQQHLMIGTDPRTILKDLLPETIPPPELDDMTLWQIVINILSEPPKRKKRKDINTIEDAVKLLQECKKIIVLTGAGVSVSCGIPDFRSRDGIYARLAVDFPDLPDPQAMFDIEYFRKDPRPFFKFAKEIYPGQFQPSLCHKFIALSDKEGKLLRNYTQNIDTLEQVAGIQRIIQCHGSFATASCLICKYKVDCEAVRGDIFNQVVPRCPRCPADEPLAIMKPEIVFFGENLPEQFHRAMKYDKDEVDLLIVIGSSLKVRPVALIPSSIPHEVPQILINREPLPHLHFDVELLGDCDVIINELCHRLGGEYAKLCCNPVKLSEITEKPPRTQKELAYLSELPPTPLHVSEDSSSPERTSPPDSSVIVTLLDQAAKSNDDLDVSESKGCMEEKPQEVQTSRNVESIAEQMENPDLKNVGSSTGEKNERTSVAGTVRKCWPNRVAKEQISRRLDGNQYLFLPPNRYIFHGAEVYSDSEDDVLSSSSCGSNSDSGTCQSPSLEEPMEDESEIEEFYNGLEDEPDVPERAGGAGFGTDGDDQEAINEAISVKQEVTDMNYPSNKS

[2] = molecular target: T2, NAD-dependent protein deacetylase sirtuin-1 (Homo sapiens) (UniProt Q96EB6); test: as §1
T2 sequence (whole entry): T1 sequence (Q96EB6 whole entry)

[3] = molecular target: T2, NAD-dependent protein deacetylase sirtuin-1 (Homo sapiens); test: Inhibition of human SIRT1 at 2 mM

IC50 [1]: 0.002 mM
Compound: CSCC[C@H](NC(=O)[C@H](CC(C)C)NC(=O)[C@H](CCCC/N=C(/C)S)NC(=O)[C@H](CCCCN)NC(=O)[C@H](Cc1c[nH]cn1)NC(=O)[C@H](CCCN=C(N)N)NC(=O)[C@H](CO)NC(=O)[C@@H](NC(=O)[C@H](CO)NC(=O)[C@H](CCC(N)=O)NC(=O)CNC(=O)[C@H](CCCCN)NC(=O)[C@@H](N)CCCCN)[C@@H](C)O)C(=O)N[C@@H](Cc1ccccc1)C(=O)N[C@@H](CCCCN)C(=O)N[C@H](C(=O)N[C@@H](CCC(=O)O)C(=O)NCC(=O)O)[C@@H](C)O

IC25 [2]: 2 mM
Compound: C/C(S)=N/CCCC[C@H](NC(=O)OCC1c2ccccc2-c2ccccc21)C(=O)O

Activity [3]: inactive
Compound: CC(=O)N[C@@H](CCCC/N=C(/C)S)C(=O)O
